Measured values published in patent US20210267979A1, “THERAPEUTIC AGENT FOR TREATING DIFFUSE GASTRIC CANCER” (KANAZAWA MEDICAL UNIVERSITY, priority 2018, published 2021).
Read-outs that look alike come from different tables or passages of the source.

Key:
[1] = tested on: NUGC4; test: Cell proliferation of diffuse gastric cancer cell strain NUGC4 (Cell Counting Kit-8); format: cell-based; conditions: for IC50: Homo sapiens, 72 hours; for Inhibitory effect on HGF induced, amphiregulin induced and base line cell proliferation: single agent, 0.001 to 10 micro M
Experimental: (§1) Each diffuse gastric cancer cell strain of NUGC4 (obtained from Health Science Research Resources Bank (Osaka, Japan)) and GCIY (obtained from Riken BioResource Research Center (Tsukuba, Japan)) was cultured and passaged in an RPMI1640 culture medium containing 10% fetal calf serum, 100 units/mL penicillin, and […] streptomycin antibiotic, and was used for the following experiments. Mycoplasma infection of cultured cells was regularly checked by MycoAlert Mycoplasma Detection kit (Lonza).
(§2) Cell proliferation was measured by Cell Counting Kit-8 (CCK-8) (Dojindo Laboratories, Kumamoto, Japan) (M. Ishiyama, et al., Talenta 44; 1299: 1997). Cells were seeded at 100 micro L/well at a concentration of 5×10^4 cells/mL and were cultured in an incubator at 37° C. for 24 hours. To each well, HGF (R&D systems) (50 ng/mL) or amphiregulin (R&D Systems (Minneapolis, Minn.)) (100 ng/mL) and trametinib (Selleck Chemicals (Houston, Tex.)) (0.001 to 10 micro M) were then added, and the cells were further cultured in an incubator at 37° C. for 72 hours. To each well, 10 micro L of a WST-solution was added, which was incubated at 37° C. for 4 hours. Absorbance was measured at a wavelength of 450 nm by a microplate reader (BIO-RAD Laboratories, Inc.). A similar experiment was repeated three times in triplets.

[2] = tested on: NUGC4; test: as above; format: cell-based; conditions: for IC50: Homo sapiens
[3] = tested on: MKN45; test: Cell proliferation of cMet gene-amplified gastric cancer cell strain MKN45 (Cell Counting Kit-8); format: cell-based; conditions: Homo sapiens
Experimental: as §2
Effects of trametinib on proliferation of cMet gene-amplified gastric cancer cell were examined by the similar method to that in Example 1.
As the cMet gene-amplified gastric cancer cells, cMet gene-amplified gastric cancer cell strain MKN45 (Health Science Research Resources Bank (Osaka, Japan)) was used.

[4] = tested on: GCIY; test: Cell proliferation of diffuse gastric cancer cell strain GCIY (Cell Counting Kit-8); format: cell-based; conditions: for IC50: Homo sapiens
Experimental: as §1, §2

[5] = tested on: MKN7; test: Cell proliferation of non-diffuse gastric cancer cells MKN7 (Cell Counting Kit-8); format: cell-based, Human; conditions: for IC50: Homo sapiens, MKN-7, MKN7
Experimental: as §2
(§3) Effects of trametinib on proliferation of non-diffuse gastric cancer cell were examined by the similar method to that in Example 1.
(§4) Human non-diffuse, well-differentiated gastric cancer cells used were MKN7 (Health Science Research Resources Bank (Osaka, Japan)) and GCR1 (Cancer Research Institute, Kanazawa University).

[6] = tested on: GCR1; test: Cell proliferation of non-diffuse gastric cancer cells GCR1 (Cell Counting Kit-8); format: cell-based; conditions: Homo sapiens
Experimental: as §2, §3, §4

[7] = tested on: NUGC4 cells; test: Survival of Balb/c nu/nu mice intraperitoneally transplanted with diffuse gastric cancer cells; format: in vivo, Balb/c nu/nu mouse; conditions: NUGC4 intraperitoneal transplant; oral administration from day 21 for 4 weeks, then 4 weeks observation; control mice all died within 7 weeks
Experimental: To a Balb/c nu/nu mouse (6 weeks old), diffuse gastric cancer cells (NUGC4 cells, 2×10^6 cells in 200 micro L PBS) were transplanted by intraperitoneal administration. On 21 days after transplantation, ascites was observed, and oral administration was started with trametinib (0.1 mg/kg body weight or 0.3 mg/kg body weight), everolimus (1.5 mg/kg body weight), combined use of trametinib (0.1 mg/kg body weight) and everolimus (1 mg/kg body weight), combined use of trametinib (0.1 mg/kg body weight) and everolimus (1 mg/kg body weight), combined use of trametinib (0.3 mg/kg) and everolimus (1 mg/kg), or combined use of trametinib (0.3 mg/kg body weight) and everolimus (5 mg/kg body weight). Each of the trametinib and the everolimus was dissolved in a solution (7% DMSO, 13% Tween80, 80% Otsuka glucose injection (5%), HCl equimolar to each compound). To a control group, only a solution containing no medicinal agent was administered. Administration was continued for 4 weeks, followed by observation for the following 4 weeks without administration of the medicinal agent.

[8] = HGF induced, combined with everolimus 1 micro M, read-out: Trametinib IC50 (micro M) HGF
[9] = amphiregulin induced, combined with everolimus 1 micro M, read-out: Trametinib IC50 (micro M) amphiregulin
[10] = base line, Example 5, combined use with everolimus 1 micro M, read-out: Trametinib IC50 (micro M) Base line
[11] = HGF induced proliferation, read-out: Trametinib IC50 (micro M) HGF
[12] = amphiregulin induced proliferation, read-out: Trametinib IC50 (micro M) amphiregulin
[13] = without HGF or amphiregulin, read-out: Trametinib IC50 (micro M) Base line

For `CC(=O)Nc1cccc(-n2c(=O)n(C3CC3)c(=O)c3c(Nc4ccc(I)cc4F)n(C)c(=O)c(C)c32)c1` [Trametinib, trametinib], the IC50 ([1]; NUGC-4, HGF 50 ng/mL induced proliferation, read-out: Trametinib IC50 (micro M) HGF) was 100 nM, the IC50 ([1]; NUGC-4, amphiregulin 100 ng/mL induced proliferation, read-out: Trametinib IC50 (micro M) amphiregulin) was 300 nM and the IC50 ([1]; NUGC-4, without HGF and AP, read-out: Trametinib IC50 (micro M) Base line) was ≤ 1 nM. The IC50 ([2]; NUGC-4, HGF induced, combined with everolimus 1 micro M, read-out: Trametinib IC50 (micro M) HGF) was 10 nM, the IC50 ([2]; NUGC-4, amphiregulin induced, combined with everolimus 1 micro M, read-out: Trametinib IC50 (micro M) amphiregulin) was 30 to 100 nM and the IC50 ([2]; NUGC-4, base line, Example 5, combined use with everolimus 1 micro M, read-out: Trametinib IC50 (micro M) Base line) was ≤ 1 nM. For the same compound, the IC50 ([3]; MKN-45, HGF added, read-out: Trametinib IC50 (micro M) HGF) was 1 nM, the IC50 ([3]; MKN-45, amphiregulin added, read-out: Trametinib IC50 (micro M) amphiregulin) was 1 nM and the IC50 ([3]; MKN-45, without HGF and AP, read-out: Trametinib IC50 (micro M) Base line) was 1 nM. It also gave an IC50 ([4]; HGF 50 ng/mL induced proliferation, 72 hours, read-out: Trametinib IC50 (micro M) HGF) of 100 nM, an IC50 [4, 8] of 100 nM and an IC50 ([4]; amphiregulin 100 ng/mL induced proliferation, 72 hours, read-out: Trametinib IC50 (micro M) amphiregulin) of 10000 nM. The IC50 [4, 9] was 300 nM, the IC50 [4, 10] was 30 nM and the IC50 ([4]; without HGF and AP, 72 hours, read-out: Trametinib IC50 (micro M) Base line) was 100 nM. The “Concentration from which proliferation inhibitory effect on the amphiregulin induced proliferation was observed” value ([4]; amphiregulin induced) was ≥ 0.03 micro M, the IC50 [5, 11] was 100 nM and the IC50 [5, 8] was 100 nM. For the same compound, the IC50 [5, 12] was 300 nM, the IC50 [5, 9] was 100 nM and the IC50 [5, 10] was 30 nM. The IC50 [5, 13] was 100 nM, the IC50 [6, 11] was 100 nM and the IC50 [6, 8] was 100 nM. It also gave an IC50 [6, 12] of 300 nM, an IC50 [6, 9] of 100 nM and an IC50 [6, 10] of 30 nM. It also gave an IC50 [6, 13] of 100 nM.

With `O=C(NC[C@H](O)CO)c1ccncc1Nc1ccc(I)cc1F` [pimasertib] the “Proliferation inhibitory effect of combined use of pimasertib and rapamycin” value ([5]; MKN7, rapamycin 1 micro M) was “no combined effect was exhibited”.

With `Cc1cc(NC(=O)c2cccc(NC(=O)/C=C/CN(C)C)c2)ccc1Nc1nccc(-c2cccnc2)n1` [JNK-IN-8] the “Inhibitory effect on HGF induced, amphiregulin induced and base line cell proliferation” value [1] was “did not exhibit obvious inhibitory effects”.

For `CO[C@H]1C[C@@H]2CC[C@@H](C)[C@@](O)(O2)C(=O)C(=O)N2CCCC[C@H]2C(=O)O[C@H]([C@H](C)C[C@@H]2CC[C@@H](OCCO)[C@H](OC)C2)CC(=O)[C@H](C)/C=C(\C)[C@@H](O)[C@@H](OC)C(=O)[C@H](C)C[C@H](C)/C=C/C=C/C=C/1C` [everolimus], the “Survival time as compared with the control group” value [7] was “prolonged survival times”.

For AZD5363, the “Inhibitory effect on the HGF induced cell proliferation” value ([1]; HGF induced) was “no inhibitory effect was exhibited except for a high concentration of 10 micro M”, the “Inhibitory effect on the amphiregulin induced cell proliferation” value ([1]; amphiregulin induced) was “a slight inhibitory effect was exhibited at a high concentration of 1 micro M or more” and the “Inhibitory effect on HGF induced, amphiregulin induced and base line cell proliferation” value [1] was “even lower than the inhibitory effect of everolimus”. For the same compound, the “Inhibitory effect on the base line cell proliferation” value ([1]; without HGF and AP) was “No inhibitory effect was exhibited”.

For `O=C(NOC[C@H](O)CO)c1ccc(F)c(F)c1Nc1ccc(I)cc1F` [PD0325901], the “Proliferation inhibitory effect of combined use of PD0325901 and temsirolimus” value ([2]; temsirolimus 1 micro M) was “synergistically improved by addition of temsirolimus” and the “Proliferation inhibitory effect of combined use of PD0325901 and temsirolimus” value ([5]; MKN7, temsirolimus 1 micro M) was “no combined effect was exhibited”.
